Here are results for twelve compounds from PubChem BioAssay (NCI).

Structures are written as SMILES.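 Test compounds were applied to cells in 96-well plates for 48 hours at 5 doses. The concentration for 50% growth inhibition is given as GI50. The concentration for full growth arrest is given as TGI.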 Where a SMILES comes first, the peptide text is derived from it. Bridges are numbered along the chain shown (N, C = ends). Roman numbers before positions name the chains, in order. [ ]: non-standard residue; d: D form. The star is where a group is joined. Quinoxaline2carbonyl = O=C(c1cnc2ccccc2n1)*; NMeV = CN[CH](C(=O)O)C(C)C; NMeC = CN[CH](CS)C(=O)O A value given as a limit tells only on which side of the number the result lay.

Test systems include A498 renal; ACHN renal; LOX IMVI melanoma; NCI-H226 lung; OVCAR-4 ovarian; RPMI-8226 leukemia; SK-MEL-28 melanoma; SK-OV-3 ovarian; U251 CNS; SR leukemia.
What all share (assay): NCI-60 cell line screen, 48 h

Regarding `CCN(CCO)CC(C)Nc1ccc([N+](=O)[O-])c2sc3ccccc3c(=O)c12` (stereo not given), the GI50 in the assay with A498 renal was 0.252 µM; in the assay with ACHN renal it was 1.01 µM; with LOX IMVI melanoma, 0.746 µM; with NCI-H226 lung it was 1.37 µM; with OVCAR-4 ovarian it was 3.32 µM; in the assay on RPMI-8226 leukemia it was 1.26 µM. The GI50 in the assay on SK-MEL-28 melanoma is 2.68 µM; with SK-OV-3 ovarian, 2.53 µM; in the assay on U251 CNS, 0.716 µM. The TGI in the assay with A498 renal was found to be 9.54 µM; in the assay on ACHN renal it was 12.1 µM; in the assay on LOX IMVI melanoma, 2.69 µM; in the assay with NCI-H226 lung it was 7.15 µM; in the assay with OVCAR-4 ovarian, 15.7 µM; with RPMI-8226 leukemia it was 4 µM. The TGI with SK-MEL-28 melanoma is 10.3 µM; with SK-OV-3 ovarian it was 14 µM; in the assay on U251 CNS, 3.35 µM.

As to `COc1ccc(OC)c(C2SCC(=O)N2NC(=O)C(O)c2ccccc2)c1` (stereo not given), the GI50 with A498 renal, in the assay on ACHN renal, in the assay on LOX IMVI melanoma, in the assay on NCI-H226 lung, in the assay on OVCAR-4 ovarian and with RPMI-8226 leukemia was more than 100 µM in each case. The GI50 in the assay on SK-MEL-28 melanoma, in the assay on SK-OV-3 ovarian and in the assay with U251 CNS was more than 100 µM in each case. Also, the TGI in the assay with A498 renal, with ACHN renal, with LOX IMVI melanoma, with NCI-H226 lung, in the assay with OVCAR-4 ovarian and with RPMI-8226 leukemia was more than 100 µM throughout. For the same compound, the TGI with SK-MEL-28 melanoma, with SK-OV-3 ovarian and in the assay with U251 CNS was more than 100 µM throughout.

For `CNS(=O)(=O)NNS(=O)(=O)c1ccc(Cl)cc1`, the TGI in the assay on A498 renal, with ACHN renal, with OVCAR-4 ovarian, with RPMI-8226 leukemia, in the assay on SK-MEL-28 melanoma and with SK-OV-3 ovarian was more than 100 µM throughout. In addition, in the assay on SR leukemia, the TGI was more than 100 µM.

For the compound `Cc1ccc(C2=Nc3ccccc3SC(c3cccc([N+](=O)[O-])c3)C2)cc1` (stereo not given), the TGI in the assay with A498 renal was more than 100 µM; in the assay with ACHN renal, more than 100 µM; in the assay on NCI-H226 lung, more than 100 µM; with OVCAR-4 ovarian, more than 100 µM; in the assay with RPMI-8226 leukemia it was 5.19 µM; in the assay with SK-MEL-28 melanoma it was more than 100 µM. The TGI with SK-OV-3 ovarian was more than 100 µM; with U251 CNS, 16.9 µM.

Regarding `CCO/C=C1\N=C(c2ccccc2Br)OC1=O`, the TGI in the assay on A498 renal, in the assay on ACHN renal, in the assay on LOX IMVI melanoma, with NCI-H226 lung, in the assay with OVCAR-4 ovarian and with RPMI-8226 leukemia was more than 100 µM each time. Also, the TGI in the assay on SK-MEL-28 melanoma and in the assay on SK-OV-3 ovarian was more than 100 µM each time.

In the case of `COc1cc(-c2cc(-c3cc([N+](=O)[O-])c(/C=N/NC(=O)c4ccncc4)o3)ccc2OC)ccc1C`, the TGI in the assay with A498 renal, in the assay with ACHN renal, with LOX IMVI melanoma, with NCI-H226 lung, in the assay on OVCAR-4 ovarian and in the assay on RPMI-8226 leukemia was more than 100 µM throughout. Also, the TGI in the assay on SK-MEL-28 melanoma and in the assay with SK-OV-3 ovarian was more than 100 µM each time.

Regarding `CC(=O)c1c(C(F)(F)F)n([O-])c2ccc(C)cc2[n+]1=O`, the GI50 in the assay with A498 renal is 4.42 µM; in the assay with ACHN renal, 3.44 µM; in the assay with LOX IMVI melanoma, 3.29 µM; in the assay on NCI-H226 lung, 1.71 µM; in the assay on OVCAR-4 ovarian, 4.88 µM; in the assay on RPMI-8226 leukemia it was 0.686 µM. The GI50 is 23.3 µM in the assay with SK-MEL-28 melanoma, 5.02 µM in the assay on SK-OV-3 ovarian and 2.79 µM in the assay on U251 CNS. The TGI in the assay with A498 renal was 18.9 µM; in the assay on ACHN renal, 20.4 µM; in the assay with LOX IMVI melanoma, more than 44.2 µM; in the assay with NCI-H226 lung it was 6.85 µM; in the assay with OVCAR-4 ovarian, more than 100 µM; with RPMI-8226 leukemia, 4.04 µM. In addition, the results for the TGI in the assay with SK-MEL-28 melanoma, in the assay with SK-OV-3 ovarian and with U251 CNS were more than 100 µM, more than 100 µM and more than 35.4 µM, respectively.

For `COc1cc2nc(NCCCCCNC(=O)c3ccco3)nc(N)c2cc1OC`, the TGI was more than 100 µM with A498 renal; more than 100 µM with ACHN renal; 95.6 µM with NCI-H226 lung; more than 100 µM with OVCAR-4 ovarian; more than 100 µM in the assay with RPMI-8226 leukemia; 36.2 µM in the assay on SK-MEL-28 melanoma. Moreover, the TGI in the assay with SK-OV-3 ovarian is more than 100 µM; in the assay with U251 CNS it was 42.5 µM.

On to `COCCOCOc1ccc(OCOCCOC)c2c1C(=O)c1ccccc1C2=O`, for which the TGI with A498 renal, in the assay with ACHN renal, in the assay with LOX IMVI melanoma, in the assay on NCI-H226 lung, in the assay on OVCAR-4 ovarian and in the assay with SK-MEL-28 melanoma was more than 100 µM in each case. Also, the TGI in the assay on SK-OV-3 ovarian and in the assay on U251 CNS was more than 100 µM each time.

On to `O=C([CH-]C(=O)c1ccccc1)c1ccccc1.O=C([CH-]C(=O)c1ccccc1)c1ccccc1.[OH-].[OH-].[Ti+4]`, for which the GI50 is 40.5 µM in the assay on A498 renal; more than 100 µM in the assay with ACHN renal; 58 µM in the assay with NCI-H226 lung; 41.3 µM in the assay with RPMI-8226 leukemia; 75.6 µM in the assay on SK-OV-3 ovarian; 18.1 µM with U251 CNS. The TGI with A498 renal, in the assay with ACHN renal, in the assay on NCI-H226 lung, in the assay with RPMI-8226 leukemia, with SK-OV-3 ovarian and with U251 CNS was more than 100 µM in each case.

Take `CC1NC(=O)C(NC(=O)c2cnc3ccccc3n2)COC(=O)C(C(C)C)N(C)C(=O)C2CSSCC(C(=O)N(C)C(C(C)C)C(=O)OCC(NC(=O)c3cnc4ccccc4n3)C(=O)NC(C)C(=O)N2C)N(C)C1=O` (stereo not given) (I: Quinoxaline2carbonyl-SA[NMeC][NMeV] / II: Quinoxaline2carbonyl-SA[NMeC][NMeV]; ester I:1-II:C, I:C-II:1; disulfide I:3-II:3; configuration not given here): the TGI in the assay with A498 renal was less than 0.01 µM; in the assay on ACHN renal, 11.9 µM; in the assay on LOX IMVI melanoma, 10.2 µM; in the assay with NCI-H226 lung it was 0.0237 µM; in the assay on OVCAR-4 ovarian, 0.254 µM; in the assay on RPMI-8226 leukemia, less than 0.01 µM. The TGI was less than 0.01 µM in the assay on SK-MEL-28 melanoma, 6.87 µM in the assay on SK-OV-3 ovarian and more than 31.8 µM in the assay on U251 CNS.

As for `CC1CN1c1c(C(=O)/C=C/c2ccccc2)c(-c2ccccc2)nn(C)c1=O` (stereo not given), the TGI turned out to be 32.4 µM with A498 renal; 33.7 µM with ACHN renal; 31.1 µM in the assay with LOX IMVI melanoma; 45.3 µM in the assay with NCI-H226 lung; 31.9 µM in the assay with OVCAR-4 ovarian; 47.5 µM with SK-MEL-28 melanoma. Further, the TGI is more than 100 µM in the assay with SK-OV-3 ovarian and 31.6 µM in the assay with U251 CNS.
